Measured values reported in paper PMC7914897, “Cytotoxic Potential of a-Azepano- and 3-Amino-3,4-SeCo-Triterpenoids” (International Journal of Molecular Sciences, 2021).

Columns and labels:
ACHN (Renal cancer) = assay: NCI-60 screen (SRB, 48 h)
SF-295 (CNS cancer) = assay: NCI-60 screen (SRB, 48 h); settings: Homo sapiens
COLO 205 (Colon cancer) = assay: NCI-60 screen (SRB, 48 h); settings: Homo sapiens
HS 578T (Breast cancer) = assay: NCI-60 screen (SRB, 48 h); settings: Homo sapiens
K-562 (Leukemia) = assay: NCI-60 screen (SRB, 48 h); settings: Homo sapiens
Prostate cancer subpanel = assay: NCI-60 screen, subpanel; settings: Homo sapiens
[1] = system: A549/ATCC (NSC lung cancer); assay: NCI-60 screen (SRB, 48 h); settings: Homo sapiens
HCT-15 (Colon cancer) = assay: NCI-60 screen (SRB, 48 h); settings: Homo sapiens
SW-620 (Colon cancer) = assay: NCI-60 screen (SRB, 48 h); settings: Homo sapiens
UACC-62 (Melanoma) = assay: NCI-60 screen (SRB, 48 h); settings: Homo sapiens
MALME-3M (Melanoma) = assay: NCI-60 screen (SRB, 48 h); settings: Homo sapiens
Ovarian Cancer subpanel = assay: NCI-60 screen, subpanel; settings: Homo sapiens
SN12C (Renal cancer) = assay: NCI-60 screen (SRB, 48 h); settings: Homo sapiens
[2] = system: NCI/ADR-RES (Ovarian cancer); assay: NCI-60 screen (SRB, 48 h); settings: Homo sapiens
HOP-62 (NSC lung cancer) = assay: NCI-60 screen (SRB, 48 h); settings: Homo sapiens
HOP-92 (NSC lung cancer) = assay: NCI-60 screen (SRB, 48 h); settings: Homo sapiens
OVCAR-8 (Ovarian cancer) = assay: NCI-60 screen (SRB, 48 h); settings: Homo sapiens
SNB-19 (CNS cancer) = assay: NCI-60 screen (SRB, 48 h); settings: Homo sapiens
M14 (Melanoma) = assay: NCI-60 screen (SRB, 48 h); settings: Homo sapiens
EKVX (NSC lung cancer) = assay: NCI-60 screen (SRB, 48 h); settings: Homo sapiens
SK-MEL-28 (Melanoma) = assay: NCI-60 screen (SRB, 48 h); settings: Homo sapiens
DU-145 (Prostate cancer) = assay: NCI-60 screen (SRB, 48 h); settings: Homo sapiens
MCF7 (Breast cancer) = assay: NCI-60 screen (SRB, 48 h); settings: Homo sapiens
[3] = system: NCI-H23 (NSC lung cancer); assay: NCI-60 screen (SRB, 48 h); settings: Homo sapiens
SK-MEL-2 (Melanoma) = assay: NCI-60 screen (SRB, 48 h); settings: Homo sapiens
UO-31 (Renal cancer) = assay: NCI-60 screen (SRB, 48 h); settings: Homo sapiens
T-47D (Breast cancer) = assay: NCI-60 screen (SRB, 48 h); settings: Homo sapiens, T47D
Renal Cancer subpanel = assay: NCI-60 screen, subpanel; settings: Homo sapiens

Which “Growth % of the Most Sensitive Cell Lines” value (ACHN (Renal cancer); 1 dose 10 µM) does the source give for `C=C(C)[C@@H]1CC[C@]2(C)[C@H](C=CC3=C4C[C@@](C)(CO)CC[C@]4(C)CC[C@]32C)[C@@]1(C)CCCN` [Compound 20] here?
The value was −94.94%.

What about the GI50 (ACHN (Renal cancer); Homo sapiens) of the same molecule?
Its GI50 is 1.76 µM.

And the IC (TGI) (ACHN (Renal cancer); Homo sapiens, 48 h, read-out: TGI)?
The IC (TGI) was 3.14 µM.

And the CC50 (ACHN (Renal cancer); Homo sapiens, read-out: LC50)?
The CC50 was 5.6 µM.

What about the GI50 (SF-295 (CNS cancer); SF-295) of the same molecule?
Its GI50 is 1.78 µM.

And the IC (TGI) (SF-295 (CNS cancer); SF-295, 48 h, read-out: TGI)?
The IC (TGI) was 3.21 µM.

What about the CC50 (SF-295 (CNS cancer); SF-295, read-out: LC50) of the same molecule?
Its CC50 is 5.79 µM.

What about the GI50 (COLO 205 (Colon cancer); COLO 205) of the same molecule?
Its GI50 is 1.49 µM.

What about the IC (TGI) (COLO 205 (Colon cancer); COLO 205, 48 h, read-out: TGI) of the same molecule?
The IC (TGI) was 3.23 µM.

What about the CC50 (COLO 205 (Colon cancer); COLO 205, read-out: LC50) of the same molecule?
Its CC50 is 6.96 µM.

What about the GI50 (HS 578T (Breast cancer)) of the same molecule?
The GI50 was 1.8 µM.

And the IC (TGI) (HS 578T (Breast cancer); 48 h, read-out: TGI)?
The IC (TGI) was 4.07 µM.

What about the CC50 (HS 578T (Breast cancer); read-out: LC50) of the same molecule?
Its CC50 is 9.2 µM.

What about the GI50 (K-562 (Leukemia); K562) of the same molecule?
The GI50 was 1.8 µM.

And the IC (TGI) (K-562 (Leukemia); K562, 48 h, read-out: TGI)?
The IC (TGI) was 5.04 µM.

What about the CC50 (K-562 (Leukemia); K562, read-out: LC50) of the same molecule?
The CC50 was over 100 µM.

What about the IC (TGI) (Prostate cancer subpanel; 48 h, read-out: TGI MG_MID) of the same molecule?
Its IC (TGI) is 3.22 µM.

What about the GI50 (Prostate cancer subpanel; read-out: GI50 MG_MID) of the same molecule?
The GI50 was 1.71 µM.

What about the GI50 ([1]; A549) of the same molecule?
Its GI50 is 1.6 µM.

And the IC (TGI) ([1]; A549, 48 h, read-out: TGI)?
The IC (TGI) was 3.18 µM.

What about the CC50 ([1]; A549, read-out: LC50) of the same molecule?
Its CC50 is 6.34 µM.

And the GI50 (HCT-15 (Colon cancer); HCT-15)?
Its GI50 is 1.53 µM.

What about the IC (TGI) (HCT-15 (Colon cancer); HCT-15, 48 h, read-out: TGI) of the same molecule?
The IC (TGI) was 2.92 µM.

And the CC50 (HCT-15 (Colon cancer); HCT-15, read-out: LC50)?
The CC50 was 5.56 µM.

What about the GI50 (SW-620 (Colon cancer); SW-620) of the same molecule?
Its GI50 is 1.56 µM.

And the IC (TGI) (SW-620 (Colon cancer); SW-620, 48 h, read-out: TGI)?
The IC (TGI) was 3.04 µM.

And the CC50 (SW-620 (Colon cancer); SW-620, read-out: LC50)?
Its CC50 is 5.93 µM.

What about the GI50 (UACC-62 (Melanoma); UACC-62) of the same molecule?
Its GI50 is 1.78 µM.

What about the IC (TGI) (UACC-62 (Melanoma); UACC-62, 48 h, read-out: TGI) of the same molecule?
Its IC (TGI) is 3.17 µM.

What about the CC50 (UACC-62 (Melanoma); UACC-62, read-out: LC50) of the same molecule?
The CC50 was 5.66 µM.

What about the GI50 (MALME-3M (Melanoma)) of the same molecule?
The GI50 was 1.46 µM.

What about the IC (TGI) (MALME-3M (Melanoma); 48 h, read-out: TGI) of the same molecule?
The IC (TGI) was 2.91 µM.

What about the CC50 (MALME-3M (Melanoma); read-out: LC50) of the same molecule?
Its CC50 is 5.82 µM.

What about the IC (TGI) (Ovarian Cancer subpanel; 48 h, read-out: TGI MG_MID) of the same molecule?
Its IC (TGI) is 3.3 µM.

And the GI50 (Ovarian Cancer subpanel; read-out: GI50 MG_MID)?
The GI50 was 1.69 µM.

What about the CC50 (Ovarian Cancer subpanel; read-out: LC50 MG_MID) of the same molecule?
The CC50 was 6.49 µM.

And the GI50 (SN12C (Renal cancer))?
Its GI50 is 1.64 µM.

And the IC (TGI) (SN12C (Renal cancer); 48 h, read-out: TGI)?
Its IC (TGI) is 3.15 µM.

What about the CC50 (SN12C (Renal cancer); read-out: LC50) of the same molecule?
Its CC50 is 6.03 µM.

And the GI50 [2]?
The GI50 was 1.74 µM.

What about the IC (TGI) ([2]; 48 h, read-out: TGI) of the same molecule?
Its IC (TGI) is 3.37 µM.

And the CC50 ([2]; read-out: LC50)?
The CC50 was 6.54 µM.

What about the GI50 (HOP-62 (NSC lung cancer); HOP-62) of the same molecule?
Its GI50 is 1.98 µM.

And the IC (TGI) (HOP-62 (NSC lung cancer); HOP-62, 48 h, read-out: TGI)?
The IC (TGI) was 4.04 µM.

What about the GI50 (HOP-92 (NSC lung cancer); HOP-92) of the same molecule?
The GI50 was 1.48 µM.

And the IC (TGI) (HOP-92 (NSC lung cancer); HOP-92, 48 h, read-out: TGI)?
Its IC (TGI) is 3.21 µM.

And the CC50 (HOP-92 (NSC lung cancer); HOP-92, read-out: LC50)?
Its CC50 is 6.96 µM.

And the GI50 (OVCAR-8 (Ovarian cancer); OVCAR-8)?
Its GI50 is 2.13 µM.

What about the IC (TGI) (OVCAR-8 (Ovarian cancer); OVCAR-8, 48 h, read-out: TGI) of the same molecule?
The IC (TGI) was 4.61 µM.

What about the CC50 (OVCAR-8 (Ovarian cancer); OVCAR-8, read-out: LC50) of the same molecule?
The CC50 was 10 µM.

What about the GI50 (SNB-19 (CNS cancer); SNB-19) of the same molecule?
Its GI50 is 1.75 µM.

What about the IC (TGI) (SNB-19 (CNS cancer); SNB-19, 48 h, read-out: TGI) of the same molecule?
The IC (TGI) was 3.17 µM.

And the CC50 (SNB-19 (CNS cancer); SNB-19, read-out: LC50)?
Its CC50 is 5.74 µM.

What about the GI50 (M14 (Melanoma); M14) of the same molecule?
Its GI50 is 1.69 µM.

And the IC (TGI) (M14 (Melanoma); M14, 48 h, read-out: TGI)?
Its IC (TGI) is 3.34 µM.

And the CC50 (M14 (Melanoma); M14, read-out: LC50)?
Its CC50 is 6.62 µM.

What about the GI50 (EKVX (NSC lung cancer)) of the same molecule?
The GI50 was 1.6 µM.

And the IC (TGI) (EKVX (NSC lung cancer); 48 h, read-out: TGI)?
Its IC (TGI) is 3.1 µM.

And the CC50 (EKVX (NSC lung cancer); read-out: LC50)?
The CC50 was 6.01 µM.

What about the GI50 (SK-MEL-28 (Melanoma); SK-MEL-28) of the same molecule?
The GI50 was 1.82 µM.

And the IC (TGI) (SK-MEL-28 (Melanoma); SK-MEL-28, 48 h, read-out: TGI)?
The IC (TGI) was 3.25 µM.

And the CC50 (SK-MEL-28 (Melanoma); SK-MEL-28, read-out: LC50)?
Its CC50 is 5.8 µM.

What about the GI50 (DU-145 (Prostate cancer); DU-145) of the same molecule?
The GI50 was 1.72 µM.

What about the IC (TGI) (DU-145 (Prostate cancer); DU-145, 48 h, read-out: TGI) of the same molecule?
Its IC (TGI) is 3.15 µM.

And the CC50 (DU-145 (Prostate cancer); DU-145, read-out: LC50)?
Its CC50 is 5.78 µM.

And the GI50 (MCF7 (Breast cancer); MCF7)?
The GI50 was 1.6 µM.

And the IC (TGI) (MCF7 (Breast cancer); MCF7, 48 h, read-out: TGI)?
Its IC (TGI) is 3.4 µM.

And the CC50 (MCF7 (Breast cancer); MCF7, read-out: LC50)?
Its CC50 is 7.23 µM.

And the GI50 ([3]; NCI-H23)?
Its GI50 is 1.77 µM.

What about the IC (TGI) ([3]; NCI-H23, 48 h, read-out: TGI) of the same molecule?
Its IC (TGI) is 3.32 µM.

And the CC50 ([3]; NCI-H23, read-out: LC50)?
The CC50 was 6.24 µM.

What about the GI50 (SK-MEL-2 (Melanoma); SK-MEL-2) of the same molecule?
The GI50 was 1.92 µM.

What about the IC (TGI) (SK-MEL-2 (Melanoma); SK-MEL-2, 48 h, read-out: TGI) of the same molecule?
Its IC (TGI) is 3.58 µM.

What about the CC50 (SK-MEL-2 (Melanoma); SK-MEL-2, read-out: LC50) of the same molecule?
Its CC50 is 6.66 µM.

What about the GI50 (UO-31 (Renal cancer); UO-31) of the same molecule?
The GI50 was 1.34 µM.

And the IC (TGI) (UO-31 (Renal cancer); UO-31, 48 h, read-out: TGI)?
Its IC (TGI) is 2.65 µM.

What about the CC50 (UO-31 (Renal cancer); UO-31, read-out: LC50) of the same molecule?
The CC50 was 5.24 µM.

What about the GI50 (T-47D (Breast cancer)) of the same molecule?
Its GI50 is 1.67 µM.

And the IC (TGI) (T-47D (Breast cancer); 48 h, read-out: TGI)?
The IC (TGI) was 3.45 µM.

And the IC (TGI) (Renal Cancer subpanel; 48 h, read-out: TGI MG_MID)?
The IC (TGI) was 3.07 µM.

What about the GI50 (Renal Cancer subpanel; read-out: GI50 MG_MID) of the same molecule?
Its GI50 is 1.61 µM.

And the CC50 (Renal Cancer subpanel; read-out: LC50 MG_MID)?
Its CC50 is 5.86 µM.
